Reference: paper PMC11774939, “Optimizing lipopeptide bioactivity: The impact of non-ionic surfactant dressing” (Journal of Pharmaceutical Analysis, 2024)
Where two headings read alike, the source gives them in different places. Peptide text beside a SMILES is read from it. * marks the point of attachment. Palmitoyl = CCCCCCCCCCCCCCCC(=O)*

Columns and labels:
[1] = cited from earlier work
[2] = cited from earlier work; remark: listed apart in the source
Text: Supplement mmc1.docx, table 1: Table S1. Lipopeptide-based drugs, with their characteristics, disease target, and the year of approval. | column: Plasma protein binding

[3] = Encapsulation efficacy: HPLC of lipopeptide passing 0.2 μm filter; type: physicochemical; settings: poloxamer 5 g/L in PBS, peptide pre-dissolved in DMSO (pL1 200 μM, pCM15 100 μM, pATIPC 10 μM); centrifuged through 0.2 μm nylon filter, HPLC AUC vs fully solubilized lipopeptide
Procedure: Section S3 in the Supplementary data contains the detailed characterization of the mixed micelles (Fig. S7A). First, calibration curves were plotted for each lipopeptide in a medium in which the compounds were perfectly soluble, namely in eluent B (0.1% TFA in acetonitrile:water (4:1, V/V) solution) (Figs. S7B−D). Next, poloxamer-lipopeptide constructs were prepared as follows: the lipopeptide samples were pre-dissolved in DMSO and then mixed with the poloxamer/PBS solutions, left shaking overnight. In the next day, the concentration was adjusted by adding PBS to the solutions. The composition of the samples was as follows: poloxamer 5 g/L and peptides (pL1 200 μM, pCM15 100 μM, and pATIPC 10 μM). Then, lipopeptide/poloxamer constructs were centrifuged using a 0.2 μm nylon filter, diluted twice with eluent B, and injected to the HPLC column. […] The highest encapsulation efficacy was measured for the shortest lipopeptide pL1, and all three poloxamers formed mixed micelles with the lipopeptides in more than 80%. It was assumed that the filtered part of the samples contains the lipopeptide aggregates with particle size of […].
Fig. S7. Formulation of Lipopeptides with Poloxamers. Overview of the analytical characterization of the samples (A). Calibration curves for the fully solubilized lipopeptides with the linear regression equation (B-D). […]

[4] = DLS of peptide-loaded poloxamer micelles; type: physicochemical; settings: lipopeptide-loaded Plur123 micelles, DLS 37 °C
Procedure: Peptide-loaded poloxamer micelles were prepared by solubilizing the peptides in 50 g/L poloxamer solutions in PBS (pH 7.4). The peptides were previously dissolved in DMSO, and then the poloxamer solutions were added. The final DMSO content was 5%. The solutions were left shaking overnight to allow enough time for solubilization. Before the measurements, PBS was added to the solutions to reach 5 g/L poloxamer concentration. In the biological experiments, these samples were diluted twice with the corresponding culture media.
The average hydrodynamic diameter (dH) and polydispersity of the peptide-loaded micelles were determined using a dynamic light scattering (DLS) instrument (NanoLab 3D^TM, LS Instruments, Fribourg, Switzerland) based on three-dimensional (3D) modulation technology. A fibre-coupled diode laser operating at 638 nm served as the light source. The measurements were performed at a detection angle of 90° and at temperatures of 37.00 ± 0.02 °C. The recorded autocorrelation functions were analyzed using the second order cumulant expansion method. Before the measurements, the samples were filtered with a 0.2 μm syringe filter.

[5] = Antigen release, dialysis membrane assay; type: physicochemical; settings: pATIPC-Plur123 mixed micelles (80 µM peptide, Plur123 40 g/L in PBS), dialysis 10K MWCO, 37 °C, after 4 h, HPLC AUC vs 0 h
Procedure: Lipopeptide release was assessed by incubating the mixed micelles in PBS at 37 °C for 6 hours, using the dialysis membrane method. Briefly, the pATIPC lipopeptide (80 µM) was dissolved in Plur123 (40 g/L, in PBS), mixed, then centrifuged using a 0.2 µm Nylon filter to remove the aggregated peptide particles. The formation of the mixed micelles was checked by DLS and the peptide content was measured by HPLC, as described above. Mixed micelle solution was then loaded into a Slide-A-Lyzer Mini Dialysis Device (10K MWCO) (Thermo Fisher Scientific, Waltham, MA, USA) and incubated at 37 °C using PBS as release medium. At 0, 1, 4 and 6 h, the micelles within the dialysis membrane were taken for measurements of particle size and distribution by DLS.

MRSA strain = test system: MRSA strain; parameters: method as in PMID 34822969; settings: cited from earlier work
Text: (§1) However, since this peptide contains only four amino aci ...

S. aureus = test system: S. aureus; parameters: method as in 2 sources, one per row (each row's own in cited_ref): ref 69 = [69]; PMID 34822969; doi:10.1016/j.micpath.2021.105301; 69 Roshanak S. Shahidi F. Tabatabaei Yazdi F. Buforin I an alternative to conventional antibiotics: Evaluation of the antimicrobial properties, stability, and safety Microb. Pathog. 161 2021 105301 10 ||| ref 53,70 = [53]; PMID 10890923; doi:10.1073/pnas.150518097; 53 Park C.B. Yi K.S. Matsuzaki K. Structure-activity analysis of buforin II, a histone H2A-derived antimicrobial peptide: The proline hinge is responsible for the cell-penetrating ability of buforin I || [70]; 70 Lee H. Yang S. Dimerization of cell-penetrating buforin II enhances antimicrobial properties J. Anal. Sci. Technol. 12 2021 9; settings: cited from earlier work
Text: as §1

[6] = test system: HT-29 colorectal adenocarcinoma cells; assay: In vitro antitumor effect, AlamarBlue; type: cell-based, human; settings: 5 μM pCM15 lipopeptide, 24 h treatment, vs medium-treated control, mean ± SD, n = 4
Procedure: All data are presented as mean ± SD (n = 4). Statistical analysis was performed using one-way analysis of variance (ANOVA), followed by Tukey's post-hoc test. Statistical significances were denoted as ^∗P < 0.05, ^∗∗P < 0.01, and ^∗∗∗P < 0.001.

For Insulin detemir, the Half-life ([1]; in vivo) is listed as 5 to 7 h, the Route of elimination ([1]; in vivo) is listed as “Mainly urinary excretion” and the Plasma protein binding [2] is listed as 98%.
In the case of Dalbavancin, the Route of elimination ([1]; approved drug characteristics) is listed as “Mainly through fecal excretion” and the Plasma protein binding ([2]; approved drug characteristics) is listed as 93%.
In the case of Caspofungin, the Half-life ([1]; approved drug characteristics) is listed as 9 to 11 h, the Route of elimination ([1]; approved drug characteristics) is listed as “Urinary and fecal excretion” and the Plasma protein binding ([2]; approved drug characteristics) is listed as 97%.
In the case of Daptomycin, the Route of elimination ([1]; approved drug characteristics) is listed as “Urinary excretion” and the Plasma protein binding ([2]; approved drug characteristics) is listed as 90-94%.
In the case of Polymyxin B, the Half-life ([1]; approved drug characteristics) is given as 6 to 11.5 h and the Route of elimination ([1]; approved drug characteristics) is given as “Mainly urinary excretion”.
For “pal-KLVANNTRLTKPK- (FFGINTIPIAC)-GGLIDIAPHQISSV [pATIPC]”, the “Encapsulation (lipopeptide in form <0.2 μm, in mixed micelles)” value [3] was “around 60%”, the “Increase in particle size after one week of storage as a solution” value [4] was 10 nm and the “pATIPC antigen remaining inside the micelles” value [5] was “more than 50%”.
In the case of “AGRGKQGGKVRAKAKTRSSRAGLQFPVGRVHRLLRKGNY [Buforin I]”, the “MIC for the MRSA strain” value (MRSA strain) is given as 14 µg/mL and the “Concentration with activity against S. aureus” value (S. aureus) is given as 10 µg/mL.
In the case of Micafungin, the Half-life ([1]; approved drug characteristics) is given as 14 to 17 h, the Route of elimination ([1]; approved drug characteristics) is given as “Mainly through fecal excretion” and the Plasma protein binding ([2]; approved drug characteristics) is given as greater than 99%.
For Colistin, the Half-life ([1]; in vivo) is given as 5 h, the Route of elimination ([1]; in vivo) is given as “Mainly urinary excretion” and the Plasma protein binding [2] is given as 50%.
With CCCCCCCCCCCCCCCC(=O)N[C@@H](CCCCN)C(=O)N[C@@H](Cc1c[nH]c2ccccc12)C(=O)N[C@@H](CCCCN)C(=O)N[C@@H](CC(C)C)C(=O)N[C@@H](Cc1ccccc1)C(=O)N[C@@H](CCCCN)C(=O)N[C@@H](CCCCN)C(=O)N[C@H](C(=O)NCC(=O)N[C@@H](C)C(=O)N[C@H](C(=O)N[C@@H](CC(C)C)C(=O)N[C@@H](CCCCN)C(=O)N[C@H](C(=O)N[C@@H](CC(C)C)C(N)=O)C(C)C)C(C)C)[C@@H](C)CC [pCM15] (Palmitoyl-KWKLFKKIGAVLKVL-NH2) the Cytotoxicity [6] was 35.0% ± 4.8.
For Insulin degludec, the Half-life ([1]; approved drug characteristics) is listed as 25 h, the Route of elimination ([1]; approved drug characteristics) is listed as “Mainly urinary excretion” and the Plasma protein binding ([2]; approved drug characteristics) is listed as greater than 99%.
In the case of Rezafungin, the Half-life ([1]; approved drug characteristics) is listed as greater than 130 h, the Route of elimination ([1]; approved drug characteristics) is listed as “Mainly through fecal excretion” and the Plasma protein binding ([2]; approved drug characteristics) is listed as 87-99%.
